Measured values from patent US20080319065A1, “Systemic and Intrathecal Effects of a Novel Series of Phospholipase A2 Inhibitors on Hyperalgesia and Spinal Pge2 Release” (The Regents of the University of California, priority 2005, published 2008).

How the values were obtained:
[1] = biological target: T1, Group IVA cPLA2 (GIVA PLA2) (Homo sapiens, UniProt P47712); assay: In vitro Group IVA cPLA2 mixed micelle assay; format: biochemical
T1 sequence (P47712 1-749): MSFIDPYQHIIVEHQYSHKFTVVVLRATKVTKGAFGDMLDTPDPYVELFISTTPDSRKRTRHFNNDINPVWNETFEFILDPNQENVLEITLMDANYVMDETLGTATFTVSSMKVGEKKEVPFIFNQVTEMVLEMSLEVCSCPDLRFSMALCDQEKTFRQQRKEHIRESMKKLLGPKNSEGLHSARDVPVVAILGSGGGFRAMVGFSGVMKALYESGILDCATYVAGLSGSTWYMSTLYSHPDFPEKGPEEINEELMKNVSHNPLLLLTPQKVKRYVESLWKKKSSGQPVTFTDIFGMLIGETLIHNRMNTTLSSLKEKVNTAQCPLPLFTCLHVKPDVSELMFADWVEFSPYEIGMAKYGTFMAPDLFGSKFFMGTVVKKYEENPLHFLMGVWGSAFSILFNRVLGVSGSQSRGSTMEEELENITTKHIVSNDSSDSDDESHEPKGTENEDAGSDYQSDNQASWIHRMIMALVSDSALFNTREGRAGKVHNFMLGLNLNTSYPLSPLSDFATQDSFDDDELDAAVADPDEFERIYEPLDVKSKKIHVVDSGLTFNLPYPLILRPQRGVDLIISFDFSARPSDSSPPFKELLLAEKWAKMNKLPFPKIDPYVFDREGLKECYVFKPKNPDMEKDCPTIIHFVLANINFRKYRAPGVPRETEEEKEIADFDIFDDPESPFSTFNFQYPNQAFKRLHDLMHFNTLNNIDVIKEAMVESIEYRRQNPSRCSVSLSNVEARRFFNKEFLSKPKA

[2] = biological target: T2, Group VIA iPLA2 (GVIA PLA2) (Homo sapiens, UniProt O60733); assay: In vitro Group VIA iPLA2 mixed micelle assay; format: biochemical
T2 sequence (O60733 1-806): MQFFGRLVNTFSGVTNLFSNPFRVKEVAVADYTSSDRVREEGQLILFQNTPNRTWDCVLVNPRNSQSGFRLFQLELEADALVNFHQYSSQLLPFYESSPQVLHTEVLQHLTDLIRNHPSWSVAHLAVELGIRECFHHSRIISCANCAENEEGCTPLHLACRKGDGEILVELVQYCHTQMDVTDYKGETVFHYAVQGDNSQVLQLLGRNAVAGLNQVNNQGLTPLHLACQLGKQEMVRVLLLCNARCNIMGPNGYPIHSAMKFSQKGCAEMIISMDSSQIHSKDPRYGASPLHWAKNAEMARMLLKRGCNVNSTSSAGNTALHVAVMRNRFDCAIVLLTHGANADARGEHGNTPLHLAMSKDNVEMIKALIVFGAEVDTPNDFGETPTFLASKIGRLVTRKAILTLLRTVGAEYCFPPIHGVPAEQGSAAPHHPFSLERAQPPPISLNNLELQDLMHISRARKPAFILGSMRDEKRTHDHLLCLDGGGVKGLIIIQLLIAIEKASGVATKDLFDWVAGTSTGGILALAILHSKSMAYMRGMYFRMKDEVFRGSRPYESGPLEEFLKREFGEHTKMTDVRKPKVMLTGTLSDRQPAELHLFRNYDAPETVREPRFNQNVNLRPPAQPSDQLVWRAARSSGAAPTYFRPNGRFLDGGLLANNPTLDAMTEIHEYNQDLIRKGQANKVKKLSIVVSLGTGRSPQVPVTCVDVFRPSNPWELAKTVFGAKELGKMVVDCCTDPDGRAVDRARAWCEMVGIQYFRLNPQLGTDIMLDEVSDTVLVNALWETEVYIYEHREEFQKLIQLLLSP

For CCC(=O)C(=O)NCCCC(=O)OC [AX010], the “inhibition of GIVA PLA2 (cPLA2), in words” value [1] was “does not significantly inhibit GIVA PLA2”, the “Group IVA XI(50), class” value ([1]; at 0.091 mole fraction) was “N.D. (25% inhibition or less at 0.091 mole fraction)” and the “Inhibition of GIVA PLA2” value ([1]; at highest dose) was “ND (negligible inhibition (0-25%) at highest dose)”. The “inhibition of GVIA PLA2 (iPLA2), in words” value [2] was “limited inhibition of GVIA PLA2”, the “Group VIA XI(50), class” value ([2]; at 0.091 mole fraction) was “L.D. (between 25% and 50% inhibition at 0.091 mole fraction)” and the “Inhibition of GVIA PLA2” value ([2]; at highest dose) was “LD (limited inhibition (25-50%) at highest dose)”.

In the case of CCCCCCCCCCCCCCC(=O)C(=O)NCCCC(=O)OCC [AX048, Ethyl 4-[(2-oxohexadecanoyl)amino]butanoate], the “Group IVA XI(50) (mole fraction)” value ([1]; Table 1b) is reported as 0.022 ± 0.009 mole fraction and the “Group VIA XI(50) (mole fraction)” value ([2]; Table 1b) is reported as 0.027 ± 0.009 mole fraction.
